Source: patent US20240182910A1, “DRUG-REGULATABLE TRANSCRIPTION FACTORS” (Senti Biosciences, Inc., priority 2021, published 2024)

Columns and labels:
AlcR = AlcR (Emericella nidulans, UniProt P21228); design: key: A, activation; DA, deactivation; DR, derepression; settings: AIR; PAIR (OalcA-PhCMVmin); cited from earlier work
[1] = target: T1, mifepristone-inducible transcription factor (Homo sapiens, UniProt P06401, V660L); assay: Transduction assay: mCherry reporter expression, mifepristone-inducible transcription factor; format: cell-based; settings: U87-MG reporter cells, cell group E; 0, 1, 100, 1000 or 10000 nM mifepristone; FIG. 4
T1 construct: expressed in transfected cells; host or cells: U87-MG reporter cells, lentiviral transduction
T1 sequence (P06401 with tags, fused parts or gaps V660L): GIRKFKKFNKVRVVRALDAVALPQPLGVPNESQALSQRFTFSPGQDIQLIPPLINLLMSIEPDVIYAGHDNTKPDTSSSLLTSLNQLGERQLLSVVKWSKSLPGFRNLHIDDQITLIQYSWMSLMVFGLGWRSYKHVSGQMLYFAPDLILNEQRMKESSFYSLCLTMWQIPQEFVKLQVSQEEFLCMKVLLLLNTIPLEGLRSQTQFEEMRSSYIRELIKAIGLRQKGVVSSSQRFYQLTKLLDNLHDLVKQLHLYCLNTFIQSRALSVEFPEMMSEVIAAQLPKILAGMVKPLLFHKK
Experimental: On day 1, reporter cells were transduced with lentivirus encoding the mifepristone-inducible transcription factor construct.
To assay for mifepristone-regulated transcription modulation, cell group E was thawed and four days later, the cells were split into a 48-well plate and treated with 0 nM, 1 nM, 100 nM, 1000 nM, or 10000 nM mifepristone. Six days after the cells were thawed, cells were trypsinized and then resuspended in FACS buffer plus Sytox Red (fluoresces in APC channel) viability dye. Cell mCherry geometric mean fluorescent intensity (gMFI) was measured at each concentration and normalized to no drug as shown in FIG. 4.

AlcR, sequence (P21228 whole entry): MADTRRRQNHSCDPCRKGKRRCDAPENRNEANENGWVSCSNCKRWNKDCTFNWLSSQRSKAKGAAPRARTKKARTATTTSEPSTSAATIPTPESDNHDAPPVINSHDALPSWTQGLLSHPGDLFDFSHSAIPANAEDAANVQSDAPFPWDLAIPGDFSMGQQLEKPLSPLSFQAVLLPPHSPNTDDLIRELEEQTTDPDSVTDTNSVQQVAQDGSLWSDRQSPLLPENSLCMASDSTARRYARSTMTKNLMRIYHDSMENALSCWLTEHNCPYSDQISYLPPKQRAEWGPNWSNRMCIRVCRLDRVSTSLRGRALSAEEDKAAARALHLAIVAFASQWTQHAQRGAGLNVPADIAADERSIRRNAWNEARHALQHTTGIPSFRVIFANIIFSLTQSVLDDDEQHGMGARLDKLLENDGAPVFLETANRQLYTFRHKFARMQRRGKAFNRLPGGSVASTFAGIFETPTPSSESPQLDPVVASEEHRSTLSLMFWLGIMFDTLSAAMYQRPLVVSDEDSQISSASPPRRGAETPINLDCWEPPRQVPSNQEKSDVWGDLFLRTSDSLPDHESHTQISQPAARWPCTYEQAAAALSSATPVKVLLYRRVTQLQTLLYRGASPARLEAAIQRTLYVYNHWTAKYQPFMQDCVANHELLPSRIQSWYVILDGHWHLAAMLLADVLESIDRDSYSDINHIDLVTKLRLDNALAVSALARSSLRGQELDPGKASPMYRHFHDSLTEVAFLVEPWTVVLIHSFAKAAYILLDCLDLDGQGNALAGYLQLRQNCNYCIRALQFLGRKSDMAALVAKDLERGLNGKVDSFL

SMILES	Response to inducer: T (transgene transcription) (AlcR)	mCherry expression (mCherry gMFI normalized to no drug) [1]
CC=O [Acetaldehyde]	A	–
CC#C[C@]1(O)CC[C@H]2[C@@H]3CCC4=CC(=O)CCC4=C3[C@@H](c3ccc(N(C)C)cc3)C[C@@]21C [mifepristone]	–	induced mCherry expression in the presence of drug in a concentration-dependent manner
